Common to all, as to format: cell-based
In assay [1] the test system is Human immortalised ductal cell line. The assay can be described thus: qRT-PCR gene expression in human immortalised ductal cell line. The following applies: ursolic acid 1, 2.5 or 5 μM; GSK126 5, 10 or 20 μM. As for the experimental part:
Human immortalised ductal cell line (Catalog #: T0018001, Addexbio) was cultured and assayed in Keratinocyte SFM (serum-free medium) (Catalog number 17005042, ThermoFisher Scientific, USA). Pharmacological inhibition of EZH2 and gene expression analysis were performed as described in Example 1.
(Real-time PCR tracks product formation cycle by cycle.)

Assay [2] concerns Human pancreatic ductal epithelial cells. The experiment in a line: Glucose stimulated insulin secretion assay (ELISA). A general note: In an ELISA, binding on a coated surface is turned into a signal by an enzyme label.
Description: 5×10^5 cells were seeded in 12-well plates and allowed to adhere for 24 hours. […] Next, cells were cultured in 28 mM (High) glucose Krebs Buffer solution and incubated for 1 hour to obtain the glucose stimulated insulin secretion. Supernatant was collected and Ultrasensitive Insulin ELISA (Mercodia) was used to determine the concentration of insulin according to manufacturer's instructions. Fold change of insulin secreted by cells were calculated by adjusting to cells stimulated with EZH2 inhibitors for insulin concentrations compared to control.
The subject of assay [3] is marmoset exocrine (acinar and ductal) cells. The assay can be described thus: qRT-PCR gene expression in marmoset exocrine (acinar and ductal) cells. The following applies: 48 hours: GSK126 10 μM, ursolic acid 5 μM. As for the experimental part:
Exocrine cells from a non-diabetic human and a marmoset were cultured and assayed in Miami/CMRL medium. The human exocrine cells were sourced from the Islet Transplant Unit of St Vincent's Institute for Medical Research. The marmoset exocrine cells were sourced from the Australian Regenerative Medicine Institute (ARMI), Monash University. Miami media is based on CMRL 1066 media (Connaught Medical Research Lab) supplemented with: Insulin, Transferrin & Selenium (ITS), human serum, Vitamin E, sodium pyruvate, zinc and HEPES. Pharmacological inhibition of EZH2 and gene expression analysis were performed as described in Example 1.

For assay [4], the system named is H3K27me3 or H3K9/14ac content at the promoters of INS-IGF2, NGN3 and PDX1 in human pancreatic ductal epithelial cells. The experiment in a line: Quantitative PCR chromatin immunoprecipitation (q-PCR ChIP) after 2- and 7-day stimulation. The following applies: 2-day stimulation (FIG. 12b). As for the experimental part: Approximately 5×10^6 cells were fixed in 1% formaldehyde for 10 minutes, with a further 10-minute incubation in 0.125M glycine to quench the cross-linking reaction. The fixed cell pellet was lysed following resuspension and homogenization in sodium dodecyl (lauryl) sulphate (SOS) lysis buffer (1% SOS, 10 mM EDTA, 50 mM Tris-HCl pH 8.1) with a protease inhibitor cocktail (Roche Diagnostics GmBH, Mannheim, Germany) included. Samples were incubated on ice for 5 minutes following which sonication was performed to shear chromatin between 200-600 bp. Sonicated chromatin was resuspended in ChIP Dilution Buffer (0.01% SOS, 1.1% Triton X-100, 1.2 mM EDTA, 16.7 mM Tris-HCl pH 8.0 and 167 mM NaCl). 20 μl of DynabeadsR Protein A (Invitrogen, Carlsbad, CA, USA) was added to each sample and pre-cleared. Overnight incubation at 4° C. with H3K27me3 or H3K9/14ac antibody was used for immunoprecipitation of chromatin, as previously described. Immunoprecipitates were collected by magnetic isolation and washed sequentially with low salt and high salt buffers. Immunoprecipitated DNA was then eluted from solution with 0.1 M NaHCO3 containing 1% SIDS. Protein-DNA cross-links were reversed by incubation of samples in Proteinase K (Sigma, St. Louis, MO, USA) for 2 hours at 62° C. DNA was purified using a Qiagen MinElute column (Qiagen Inc., Valencia, CA, USA). H3K27me3 or H3K9/14ac content at the promoters of the INS-IGF2, NGN3 and PDX1 genes were assessed by qPCR using primers designed from the integrative ENCODE resource.

Assay [5] relates to human pancreatic exocrine cells. The experiment in a line: qRT-PCR gene expression in ex vivo pancreatic exocrine cells from non-diabetic and type 1 diabetic donors. From the text: Islets were purified by intraductal perfusion and digestion of the pancreases with collagenase AF-1 (SERVA/Nordmark, Germany) (Ricordi C et al. Automated method for isolation of human pancreatic islets. Diabetes 37, 413-420 (1988)), followed by purification using Ficoll density gradients (Barbaro B, et al. Improved human pancreatic islet purification with the refined UIC—UB density gradient. Transplantation 84, 1200-1203 (2007)). Purified islets, from low density gradient fractions, and acinar/ductal tissue, from high density fractions, were cultured in Miami Media 1A (Mediatech/Corning 98-021, USA) supplemented with 2.5% human serum albumin (Australian Red Cross, Melbourne, VIC, Australia), in a 37° C., 5% CO2 incubator.
Total RNA from human ex vivo pancreatic cells was isolated using TRIzol (Invitrogen) and RNeasy Kit (QIAGEN) including a DNase treatment. First-strand cDNA synthesis was performed using a high-capacity cDNA Reverse Transcription Kit (Applied Biosystems) according to the manufacturer's instructions. cDNA primers were designed using oligoperfect designer (Thermo Fisher Scientific), as shown in Table 2 and Table 3. Briefly, quantitative RT-PCR analyses were undertaken using the PrecisionFast 2× qPCR Master Mix (Primerdesign) and primers using Applied Biosystems 7500 Fast Real-Time PCR System. Each qPCR reaction contained: 6.5 μl qPCR Master Mix, 0.5 μl of forward and reverse primers, 3.5 μl H2O and 2 μl of previously synthesised cDNA, diluted 1/20. Expression levels of specific genes were tested and normalised to 18s ribosomal RNA housekeeping gene.
All cell incubations were performed in Miami Media 1A (Mediatech/Corning 98-021, USA) supplemented with 2.5% human serum albumin (Australian Red Cross, Melbourne, VIC, Australia), in a cell culture incubator at 37° C. in an atmosphere of 5% CO2 for 48 hr using non-treated 6 well culture plates (Corning).

The mark [6] stands for this setting: 10 mM GSK126 (so in the source), 48 hr.
Where [7] appears, read: 10 mM GSK126 (so in the source), 48 hr, non-diabetic and T1D donors.

For the compound `CC[C@H](C)n1cc(C)c2c(C(=O)NCc3c(C)cc(C)[nH]c3=O)cc(-c3ccc(N4CCNCC4)nc3)cc21` [GSK126, N-[(1,2-Dihydro-4,6-dimethyl-2-oxo-3-pyridinyl)methyl]-3-methyl-1-[(1S)-1-methylpropyl]-6-[6-(1-piperazinyl)-3-pyridinyl]-1H-indole-4-carboxamide], in assay [1], the “Insulin mRNA expression” value is listed as “stimulated expression”, the “Ngn3 mRNA expression” value is on record as “stimulated expression” and the “Pdx1 mRNA expression” value is recorded as “stimulated expression”. For the same compound, the “insulin concentration after incubation in high-glucose media (28 mM glucose, 1 hour)” value in assay [2] (2-day stimulation (FIG. 13d), GSK126 10 μM, EPZ6438 1 μM, Triptolide 20 nM, not observed in DMSO control) is on record as “significant elevations”. Besides, in assay [2] (7 days stimulation (FIG. 13e)), the “Release of insulin (glucose stimulated)” value was “maintained”. In assay [3], the “Insulin mRNA expression” value was “stimulated expression” and the “Pdx1 mRNA expression” value was “stimulated expression”. Moreover, in assay [4], the “H3K27me3 content of chromatin associated with NGN3 promoter” value is “significantly reduced”, the “H3K27me3 content of chromatin associated with PDX1 promoter” value is “significantly reduced” and the “H3K27me3 content of chromatin associated with the INS promoter domain” value is “significantly reduced”. In addition, in assay [5] (setting [6]), the “Amy2A (acinar marker) expression” value is listed as “did not significantly alter”, the “Ck19 (ductal marker) expression” value is given as “did not significantly alter”, the “Ki67 (proliferative marker) expression” value is listed as “increased” and the “Txnip (glucose-sensor) expression” value is “did not significantly alter”. In assay [5] (setting [7]), the Ins gene expression entry is on record as “significant expression”, the “Ngn3 mRNA expression” value is listed as “restored”, the “Pdx1 mRNA expression” value was “restored” and the “Sox9 mRNA expression” value is listed as “restored”. Besides, in assay [5] (ex vivo exocrine cells, GSK126), the MafA gene expression result is reported as “restored”, the Nkx6.1 gene expression entry is “restored” and the Sox11 gene expression entry is recorded as “restored”.
